In one assay the test system is A. baumannii CDC-0045. As to the kind of experiment: microbe, parasite or virus in culture. It is filed as cell-based. Conditions: Acinetobacter baumannii, CDC0045, read-out: MIC, A. baumannii CDC-0045.
The subject of a further assay is P. aeruginosa CDC-0090. Description: microbe, parasite or virus in culture. It is filed as cell-based. As to conditions: Pseudomonas aeruginosa, CDC0090, read-out: Minimum inhibitory concentration, P. aeruginosa CDC-0090.
The next assay relates to A. baumannii CDC-0036. As to the kind of experiment: microbe, parasite or virus in culture. In kind it is cell-based. As to conditions: Acinetobacter baumannii, CDC0036, read-out: MIC, A. baumannii CDC-0036.
A further assay relates to A. baumannii ATCC 17978. As to the kind of experiment: microbe, parasite or virus in culture. In kind it is cell-based. Conditions: Acinetobacter baumannii, ATCC17978, read-out: MIC, A. baumannii ATCC 17978.
The next assay has as its system A. baumannii 1258916. As to the kind of experiment: microbe, parasite or virus in culture. It is filed as cell-based, Acinetobacter baumannii. Conditions: Acinetobacter baumannii, 1258916, read-out: MIC, A. baumannii 1258916.
The target of assay [1] is T1, PBP3 from Acinetobacter baumannii (ATCC 19606) (Acinetobacter baumannii, UniProt A0ABX6CK25).
T1 sequence (A0ABX6CK25 64-610): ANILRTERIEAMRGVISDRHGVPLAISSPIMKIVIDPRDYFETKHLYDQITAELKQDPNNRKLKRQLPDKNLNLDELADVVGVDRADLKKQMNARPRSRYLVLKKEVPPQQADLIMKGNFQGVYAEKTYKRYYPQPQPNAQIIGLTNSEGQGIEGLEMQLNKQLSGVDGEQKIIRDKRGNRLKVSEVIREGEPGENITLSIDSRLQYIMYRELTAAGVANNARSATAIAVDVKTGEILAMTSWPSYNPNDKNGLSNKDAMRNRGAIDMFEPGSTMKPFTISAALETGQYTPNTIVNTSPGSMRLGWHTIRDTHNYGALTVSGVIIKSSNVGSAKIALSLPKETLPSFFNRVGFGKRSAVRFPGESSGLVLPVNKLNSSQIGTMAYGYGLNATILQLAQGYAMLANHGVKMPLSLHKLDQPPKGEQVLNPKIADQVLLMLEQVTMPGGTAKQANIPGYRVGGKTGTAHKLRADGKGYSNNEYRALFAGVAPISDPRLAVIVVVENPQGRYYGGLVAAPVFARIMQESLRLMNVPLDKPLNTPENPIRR
As to the kind of experiment: Bocillin-FL fluorescence polarization competition binding, A. baumannii PBP3. As to conditions: fluorescence polarization competition binding assay using Bocillin-FL; read-out: A. baumannii PBP3 Potency. Put shortly: (§1)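 Purified PBPs pre-incubated with inhibitor (E. coli PBP3 1.5 μM, 30 min; P. aeruginosa PBP3 0.75 μM, A. baumannii PBP1a 1 μM and PBP3 0.2 μM, 15 min), then Bocillin-FL 0.1 μM (0.05 μM for PBP1a) added; FP read up to 60 min. EC50 = concentration halving bound Bocillin-FL.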
(Fluorescence polarisation rises when a labelled molecule tumbles more slowly, as on binding a larger partner.)

The target in assay [2] is T2, PBP3 from Pseudomonas aeruginosa (PAO1) (Pseudomonas aeruginosa, UniProt G3XD46).
T2 construct: made in house
T2 sequence (G3XD46 whole entry): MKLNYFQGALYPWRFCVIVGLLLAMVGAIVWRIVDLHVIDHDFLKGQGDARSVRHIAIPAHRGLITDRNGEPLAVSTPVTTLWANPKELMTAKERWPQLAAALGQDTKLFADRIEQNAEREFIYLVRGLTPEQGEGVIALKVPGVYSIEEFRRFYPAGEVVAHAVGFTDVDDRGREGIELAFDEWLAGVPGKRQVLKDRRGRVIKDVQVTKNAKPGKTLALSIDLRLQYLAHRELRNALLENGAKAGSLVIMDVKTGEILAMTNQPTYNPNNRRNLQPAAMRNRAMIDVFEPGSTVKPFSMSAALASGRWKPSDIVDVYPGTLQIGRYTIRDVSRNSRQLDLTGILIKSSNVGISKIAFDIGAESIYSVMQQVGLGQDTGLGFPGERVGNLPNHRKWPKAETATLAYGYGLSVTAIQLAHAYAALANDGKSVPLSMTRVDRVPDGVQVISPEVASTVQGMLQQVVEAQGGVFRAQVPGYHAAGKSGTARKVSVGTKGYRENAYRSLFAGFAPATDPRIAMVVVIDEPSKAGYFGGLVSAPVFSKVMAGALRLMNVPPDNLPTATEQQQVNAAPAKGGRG
Description: Bocillin-FL fluorescence polarization competition binding, P. aeruginosa PBP3. As to conditions: Binding affinity to P. aeruginosa PBP3; fluorescence polarization competition binding assay using Bocillin-FL; read-out: P. aeruginosa PBP3 Potency. Put shortly: as §1

The test system of assay [3] is B. thailandensis ATCC 700388. Description: microbe, parasite or virus in culture. In kind it is cell-based. As to conditions: Burkholderia thailandensis, ATCC700388, read-out: Minimum inhibitory concentration (MIC), B. thailandensis ATCC 700388.
The next assay concerns P. aeruginosa ATCC 27853. Description: microbe, parasite or virus in culture. In kind it is cell-based. As to conditions: Pseudomonas aeruginosa, ATCC27853, read-out: Minimum inhibitory concentration, P. aeruginosa ATCC 27853.
The next assay has as its system P. aeruginosa CDC-0054. Description: microbe, parasite or virus in culture. In kind it is cell-based. As to conditions: Pseudomonas aeruginosa, CDC0054, read-out: Minimum inhibitory concentration, P. aeruginosa CDC-0054.

Values after ≈ are worked out from the molar mass of the structure shown.

The record followed here is patent publication US20240270762A1, “PENICILLIN-BINDING PROTEIN INHIBITORS” (priority 2021, published 2024).

`O=C(NCCCN1CCN(C(=O)NC(C(=O)N[C@H]2Cc3ccc(F)c(C(=O)O)c3OB2O)c2cc(F)c(O)c(O)c2Cl)C(=O)C1=O)c1c(F)ccc(O)c1Cl` (stereo partly drawn) [Example 414, (3R)-3-(2-(2-chloro-5-fluoro-3,4-dihydroxyphenyl)-2-(4-(3-(2-chloro-6-fluoro-3-hydroxybenzamido)propyl)-2,3-dioxopiperazine-1-carboxamido)acetamido)-7-fluoro-2-hydroxy-3,4-dihydro-2H-benzo[e][1,2]oxaborinine-8-carboxylic acid]: the MIC in the assay with A. baumannii CDC-0045 was 2 to 4 µg/mL (≈ 2.46 to 4.92 µM); in the assay on P. aeruginosa CDC-0090, less than 1 µg/mL; in the assay on A. baumannii CDC-0036, 2 to 4 µg/mL (≈ 2.46 to 4.92 µM); in the assay on A. baumannii ATCC 17978, less than 1 µg/mL; in the assay on A. baumannii 1258916 it was 2 to 4 µg/mL (≈ 2.46 to 4.92 µM); in assay [3], 2 to 4 µg/mL (≈ 2.46 to 4.92 µM). The MIC with P. aeruginosa ATCC 27853 and in the assay with P. aeruginosa CDC-0054 was less than 1 µg/mL in each case. The IC50 in assay [1] and in assay [2] was less than 10 µM in each case.
For the compound `O=C(NCCCN1CCN(C(=O)NC(C(=O)N[C@H]2Cc3ccc(F)c(C(=O)O)c3OB2O)c2cc(F)c(O)c(O)c2Cl)C(=O)C1=O)c1cc(O)c(F)c(O)c1F` (stereo partly drawn) [Example 415, (3R)-3-(2-(2-chloro-5-fluoro-3,4-dihydroxyphenyl)-2-(4-(3-(2,4-difluoro-3,5-dihydroxybenzamido)propyl)-2,3-dioxopiperazine-1-carboxamido)acetamido)-7-fluoro-2-hydroxy-3,4-dihydro-2H-benzo[e][1,2]oxaborinine-8-carboxylic acid], the MIC was 2 to 4 µg/mL (≈ 2.46 to 4.93 µM) in the assay on A. baumannii CDC-0045; less than 1 µg/mL in the assay on P. aeruginosa CDC-0090; 2 to 4 µg/mL (≈ 2.46 to 4.93 µM) in the assay on A. baumannii CDC-0036; less than 1 µg/mL in the assay on A. baumannii ATCC 17978; 2 to 4 µg/mL (≈ 2.46 to 4.93 µM) in the assay on A. baumannii 1258916; 8 to 16 µg/mL (≈ 9.85 to 19.7 µM) in assay [3]. The MIC in the assay with P. aeruginosa ATCC 27853 and with P. aeruginosa CDC-0054 was less than 1 µg/mL each time. For the same compound, the IC50 in [1] and in assay [2] was less than 10 µM throughout.
Consider `O=C(NCCCN1CCN(C(=O)NC(C(=O)N[C@H]2Cc3ccc(F)c(C(=O)O)c3OB2O)c2cc(F)c(O)c(O)c2Cl)C(=O)C1=O)c1cc(O)c(F)c(O)c1` (stereo partly drawn) [Example 416, (3R)-3-(2-(2-chloro-5-fluoro-3,4-dihydroxyphenyl)-2-(4-(3-(4-fluoro-3,5-dihydroxybenzamido)propyl)-2,3-dioxopiperazine-1-carboxamido)acetamido)-7-fluoro-2-hydroxy-3,4-dihydro-2H-benzo[e][1,2]oxaborinine-8-carboxylic acid], for which the MIC in the assay on A. baumannii CDC-0045 was less than 1 µg/mL; with P. aeruginosa CDC-0090, less than 1 µg/mL; in the assay on A. baumannii CDC-0036, 2 to 4 µg/mL (≈ 2.52 to 5.04 µM); in the assay on A. baumannii ATCC 17978, less than 1 µg/mL; with A. baumannii 1258916 it was less than 1 µg/mL; in assay [3], less than 1 µg/mL. Moreover, the MIC in the assay on P. aeruginosa ATCC 27853 and in the assay on P. aeruginosa CDC-0054 was less than 1 µg/mL each time. The IC50 in [1] and in [2] was less than 10 µM in each case.
On to `O=C(NCCCN1CCN(C(=O)NC(C(=O)N[C@H]2Cc3ccc(F)c(C(=O)O)c3OB2O)c2cc(F)c(O)c(O)c2Cl)C(=O)C1=O)c1ccc(O)c(F)c1Cl` (stereo partly drawn) [Example 418, (3R)-3-(2-(4-(3-(2-chloro-3-fluoro-4-hydroxybenzamido)propyl)-2,3-dioxopiperazine-1-carboxamido)-2-(2-chloro-5-fluoro-3,4-dihydroxyphenyl)acetamido)-7-fluoro-2-hydroxy-3,4-dihydro-2H-benzo[e][1,2]oxaborinine-8-carboxylic acid], for which the MIC with A. baumannii CDC-0045 was less than 1 µg/mL; with P. aeruginosa CDC-0090, less than 1 µg/mL; in the assay on A. baumannii CDC-0036 it was 2 to 4 µg/mL (≈ 2.46 to 4.92 µM); in the assay on A. baumannii ATCC 17978, less than 1 µg/mL; with A. baumannii 1258916 it was 2 to 4 µg/mL (≈ 2.46 to 4.92 µM); in [3], less than 1 µg/mL. For the same compound, the MIC was 2 to 4 µg/mL (≈ 2.46 to 4.92 µM) with P. aeruginosa ATCC 27853 and less than 1 µg/mL in the assay on P. aeruginosa CDC-0054. The IC50 in assay [1] and in assay [2] was less than 10 µM each time.
As for `O=C(NCCCN1CCN(C(=O)NC(C(=O)N[C@H]2Cc3ccc(F)c(C(=O)O)c3OB2O)c2cc(F)c(O)c(O)c2Cl)C(=O)C1=O)c1ccc(O)c(Cl)c1F` (stereo partly drawn) [Example 419, (3R)-3-(2-(4-(3-(3-chloro-2-fluoro-4-hydroxybenzamido)propyl)-2,3-dioxopiperazine-1-carboxamido)-2-(2-chloro-5-fluoro-3,4-dihydroxyphenyl)acetamido)-7-fluoro-2-hydroxy-3,4-dihydro-2H-benzo[e][1,2]oxaborinine-8-carboxylic acid], the MIC was 2 to 4 µg/mL (≈ 2.46 to 4.92 µM) in the assay on A. baumannii CDC-0045; 2 to 4 µg/mL (≈ 2.46 to 4.92 µM) with P. aeruginosa CDC-0090; 2 to 4 µg/mL (≈ 2.46 to 4.92 µM) in the assay on A. baumannii CDC-0036; less than 1 µg/mL with A. baumannii ATCC 17978; 2 to 4 µg/mL (≈ 2.46 to 4.92 µM) in the assay on A. baumannii 1258916; 2 to 4 µg/mL (≈ 2.46 to 4.92 µM) in assay [3]. For the same compound, the MIC in the assay with P. aeruginosa ATCC 27853 and in the assay with P. aeruginosa CDC-0054 was 2 to 4 µg/mL (≈ 2.46 to 4.92 µM) each time. For the same compound, the IC50 in assay [1] and in [2] was less than 10 µM throughout.
Take `O=C(NCCCN1CCN(C(=O)NC(C(=O)N[C@H]2Cc3ccc(F)c(C(=O)O)c3OB2O)c2cc(F)c(O)c(O)c2Cl)C(=O)C1=O)c1c(F)cc(O)cc1Cl` (stereo partly drawn) [Example 421, (3R)-3-(2-(2-chloro-5-fluoro-3,4-dihydroxyphenyl)-2-(4-(3-(2-chloro-6-fluoro-4-hydroxybenzamido)propyl)-2,3-dioxopiperazine-1-carboxamido)acetamido)-7-fluoro-2-hydroxy-3,4-dihydro-2H-benzo[e][1,2]oxaborinine-8-carboxylic acid]: the MIC with A. baumannii CDC-0045 is less than 1 µg/mL; in the assay on P. aeruginosa CDC-0090, less than 1 µg/mL; in the assay with A. baumannii CDC-0036, 2 to 4 µg/mL (≈ 2.46 to 4.92 µM); with A. baumannii ATCC 17978 it was less than 1 µg/mL; in the assay with A. baumannii 1258916 it was 2 to 4 µg/mL (≈ 2.46 to 4.92 µM); in assay [3], 2 to 4 µg/mL (≈ 2.46 to 4.92 µM). Besides, the MIC in the assay on P. aeruginosa ATCC 27853 is 2 to 4 µg/mL (≈ 2.46 to 4.92 µM); with P. aeruginosa CDC-0054 it was less than 1 µg/mL. Besides, the IC50 in assay [1] and in assay [2] was less than 10 µM each time.
Take `O=C(NCCCN1CCN(C(=O)N[C@@H](C(=O)N[C@H]2Cc3ccc(F)c(C(=O)O)c3OB2O)c2cc(F)c(O)c(O)c2Cl)C(=O)C1=O)c1cc(F)c(O)c(F)c1` [Example 422, (R)-3-((R)-2-(2-chloro-5-fluoro-3,4-dihydroxyphenyl)-2-(4-(3-(3,5-difluoro-4-hydroxybenzamido)propyl)-2,3-dioxopiperazine-1-carboxamido)acetamido)-7-fluoro-2-hydroxy-3,4-dihydro-2H-benzo[e][1,2]oxaborinine-8-carboxylic acid]: the MIC in the assay on A. baumannii CDC-0045 is less than 1 µg/mL; in the assay on P. aeruginosa CDC-0090, 2 to 4 µg/mL (≈ 2.51 to 5.03 µM); in the assay with A. baumannii CDC-0036 it was 2 to 4 µg/mL (≈ 2.51 to 5.03 µM); with A. baumannii ATCC 17978 it was less than 1 µg/mL; in the assay on A. baumannii 1258916, less than 1 µg/mL; in assay [3], less than 1 µg/mL. Moreover, the MIC is 2 to 4 µg/mL (≈ 2.51 to 5.03 µM) in the assay on P. aeruginosa ATCC 27853 and less than 1 µg/mL with P. aeruginosa CDC-0054. The IC50 in assay [1] and in assay [2] was less than 10 µM throughout.
For the compound `O=C(NCCCN1CCN(C(=O)NC(C(=O)N[C@H]2Cc3ccc(F)c(C(=O)O)c3OB2O)c2cc(F)c(O)c(O)c2Cl)C(=O)C1=O)c1cc(O)cc(O)c1` (stereo partly drawn) [Example 423, (3R)-3-(2-(2-chloro-5-fluoro-3,4-dihydroxyphenyl)-2-(4-(3-(3,5-dihydroxybenzamido)propyl)-2,3-dioxopiperazine-1-carboxamido)acetamido)-7-fluoro-2-hydroxy-3,4-dihydro-2H-benzo[e][1,2]oxaborinine-8-carboxylic acid], the MIC in the assay with A. baumannii CDC-0045 is less than 1 µg/mL; with P. aeruginosa CDC-0090, less than 1 µg/mL; with A. baumannii CDC-0036, 2 to 4 µg/mL (≈ 2.58 to 5.16 µM); in the assay on A. baumannii ATCC 17978, less than 1 µg/mL; in the assay with A. baumannii 1258916, less than 1 µg/mL; in assay [3] it was less than 1 µg/mL. The MIC with P. aeruginosa ATCC 27853 and with P. aeruginosa CDC-0054 was less than 1 µg/mL throughout. The IC50 in assay [1] and in assay [2] was less than 10 µM each time.
